From US20100279941A1, “CD36 MODULATION AND USES THEREOF” (priority 2009, published 2010)

Assays:
[1] = test system: CD36^+/+ and CD36^−/− mice; assay: Myocardial NEFA uptake by μPET with [18F]-FTHA; format: in vivo; settings: 6 hours reperfusion, in words
Experimental: (§1) Experimental model of IHD: Transient left coronary artery ligation in vivo. Mice were subjected to a transient LCAL surgery as described before, with minor modifications [Tarnayski et al., 2004]. Mice were injected i.p. with buprenorphine (0.05 mg/kg) and placed in an induction chamber with inhalation anesthesia comprised of 3% isoflurane mixed with 100% oxygen. Mice were intubated with a blunt ended 20-gauge catheter into the trachea via the mouth and mechanically ventilated at a tidal volume of 7 ml/kg at 130 respirations/min with a MiniVent™ mouse ventilator (model 845, Harvard Apparatus, Saint-Laurent, QC, Canada). Anesthesia was maintained with 1.5-2% isoflurane and the animals were kept warm using electrical heating pads during the surgical procedure. The chest was opened by a horizontal incision through the skin and muscle layers at the third intercostal space exposing the left side of the heart. […] Visual blanching distal to the coronary occlusion confirmed myocardial ischaemia. Lidocaine (6 mg/kg) was administered i.p. just following occlusion and prior to reperfusion. After 30 minutes, the PE10 tubing was removed allowing reperfusion. The lungs were reinflated and the chest wound closed layer by layer before extubation. At 6 hours following reperfusion, mice were anesthetized (isoflurane), a blood sample withdrawn, and the heart arrested in diastole by an intravenous injection of 1 M KCl (0.5 mL). Hearts were immediately frozen at −80° C. unless otherwise stated.
Imaging experiments. Imaging experiments were performed with the avalanche photodiode-based small animal PET scanner (μPET) [Lecomte et al., 1996]. […]
Imaging Data Analysis. For [^11C]-acetate images, dynamic series of 25 frames each were sorted out whereas 27 frames were used for ^18FDG and ^18FTHA imaging, and were reconstructed and analyzed using multicompartmental analysis [Menard et al., 2009] or the Patlak method for FTHA [Patlak and Blasberg, 1985]. […]
Plasma and tissue assays. Plasma insulin, triglyceride (TG) and NEFA levels were measured as previously described [Menard et al., 2009]. […]

[2] = test system: C57BL/6 mice; assay: Blood lactate after transient ischemia; format: in vivo; settings: 6-hour reperfusion; 2 weeks 289 nmol/kg; P<0.05 compared to vehicle
Experimental: C57BU6 mice were bred in house. Male mice, aged 23 (±1) weeks, were used for experiments. They were fed standard chow (#5075, Charles Rivers, Saint-Constant, Québec, Canada) and water ad libitum, and housed singly during treatment periods (2 weeks). Daily pharmacological treatments with 300 μg/kg (289 nmol/kg) of EP 80317 or 289 nmol/kg of CP-3(IV), 289 nmol/kg of CP-AP-4 or vehicle (0.9% NaCl) were done by subcutaneous (s.c.) injections.
as §1
Blood lactate. Blood lactate was determined using the Lactate Pro Analyser (FaCT Canada Consulting Ltd, Quesnel, BC, Canada), according to the manufacturer's instructions.

HAIC-2MeDTrp-DLys-Trp-DPhe-Lys-NH2 [EP 80317]
total plasma NEFA uptake (Km) ([1]; CD36^+/+ mice): reduced | mean fractional uptake rate (Ki) of plasma NEFA ([1]; CD36^+/+ or CD36^−/− mice): not affected | net fatty acid uptake (Km) ([1]; CD36^−/− mice): not modulated | reduction of lactate concentration in blood [2]: 34%
